The subject of one assay is HDAC. The experiment in a line: HDAC activity assay of peptide pull-down complex (SNU-398 nuclear extracts). It is filed as biochemical, human. The following applies: compared to IgG control. On the procedure: Assay was performed with the Fluorescent HDAC Assay Kit (Active Motif) having the following modifications: Following the pull down described in Western Blotting section the proteins bound to the beads were eluted in buffer containing 20 mM HEPES (pH 7.5) 350 mM NaCl, 20% glycerol, 1% Igepal CA-630, 1 mM MgCl2, 5 mM DTT and Protease inhibitors (Sigma). The eluates were used as an HDAC enzyme source in an enzymatic reaction for 2 h at 37 C. The HDAC reactions were performed twice on various samples, and each time in triplicate.
Next tested was whether this wt 12-AA could compete with SALL4 in interacting with NuRD. A hepatocellular carcinoma cell line SNU-398 with abundant SALL4 expression was chosen for the following groups of experiences. Whether the wt 12-AA or its control (Mut and Scr) can bind to HDAC1 and HDAC2, the two NuRD components, was first evaluated. […] The histone deacetylase activity of the peptide pull-down complex was then measured using a Fluorescent Assay kit (Active Motif) (FIG. 1D). […]
First evaluated was whether the wild type peptide or the mutant or scrambled controls could bind to HDAC1 and HDAC2, which comprise part of the NuRD complex 38. […] To test this possibility, the histone deacetylase activity of the peptide pull-down complex was measured using a fluorescent assay kit (FIG. 8C). […]

Another assay has as its system HDAC1 and HDAC2. The experiment in a line: Anti-FITC pull-down of FITC-labeled peptides from SNU-398 nuclear extracts, Western blot for HDAC1/HDAC2. It is filed as binding, human. The following applies: anti-FITC IP. On the procedure: For the pull down assay FITC-labeled version of the peptides and anti-FITC antibody (Santa Kruz, Calif.) was used. The antibody was immobilized covalently on the surface of Dinabeads (Invitrogen). The magnetic beads were than used in the pull down reaction according to the instruction of the manufacturer with the following minor modifications: 1 mM DTT, 0.1 mM NaF, 1 mM PMSF, 1 mM Na orthovanadate, and 1:100 final dilution of protease inhibitor, (Sigma Co.) was added to the extraction buffer. The NaCl concentration was optimized to 100 mM. Eluted proteins were submitted to Western blotting using standard procedure and the protein bands were visualized using antibodies to HDAC1 and 2 (Sigma)
Next tested was whether this wt 12-AA could compete with SALL4 in interacting with NuRD. A hepatocellular carcinoma cell line SNU-398 with abundant SALL4 expression was chosen for the following groups of experiences. Whether the wt 12-AA or its control (Mut and Scr) can bind to HDAC1 and HDAC2, the two NuRD components, was first evaluated. […] The histone deacetylase activity of the peptide pull-down complex was then measured using a Fluorescent Assay kit (Active Motif) (FIG. 1D). The active enzymatic activity of the HDACs tested by this assay corresponds to the amount of the HDAC proteins in the sample.
First evaluated was whether the wild type peptide or the mutant or scrambled controls could bind to HDAC1 and HDAC2, which comprise part of the NuRD complex 38. The hepatocellular carcinoma (HCC) cell line SNU-398 expresses abundant amount of SALL4 and was chosen for the following 9 experiments. […] To test this possibility, the histone deacetylase activity of the peptide pull-down complex was measured using a fluorescent assay kit (FIG. 8C). The active enzymatic activity of the HDACs tested by this assay corresponded to the amount of the HDAC proteins in the sample.
(In general: A western blot detects proteins with antibodies after separation by electrophoresis.)

Assay [1] deals with SALL4 interaction with HDAC1. The experiment in a line: Co-immunoprecipitation of endogenous SALL4 with HDAC1 after peptide treatment (SNU-398). The following applies: SNU-398, anti-SALL4 IP. In kind it is binding, human. The text has this:
FIGS. 9A-9E: The wild type peptide blocks SALL4 repression of PTEN. (9A) Flow cytometry analysis on SNU-398 cells treated with Pep-1 carrier peptide alone (top panel), wild type peptide alone (middle panel), or Pep-1 carrier+peptide (lower panel). […] (9B) Confocal images of the distribution of FITC-labeled peptide in SNU-398 cells treated as shown in (9A). (9C) The endogenous SALL4 interaction with HDAC is blocked by wild type (wt) but not scrambled (scr) peptide. SALL4 was immunoprecipitated from SNU-398 nuclear extracts (1×10^6 cells) pre-treated with wild type or scrambled peptides as indicated using an anti-SALL4 antibody. Immunoprecipitates were analyzed by Western blot using HDAC1 (top panel) or SALL4 (lower panel) antibodies. […] Equal amount of SALL4 protein was present in all samples. In Lane 4 (“10% input”), 10% of the amount of nuclear extract used in lanes 1-3 was subjected to Western blot analysis without immunoprecipitation. […] Enrichment with control IgG was set at 1.
Furthermore, whether wt peptide can compete with endogenous SALL4 in interacting with HDAC1 was tested. SNU-398 cells were treated with wt or Scr peptides. […] This effect was not observed with the SNU-398 cells treated with Scr peptide and HDAC1 was still present in the endogenous SALL4 pull-down (FIG. 2).
Next tested was whether wild type peptide could compete for the interaction of endogenous SALL4 with HDAC1. SNU-398 cells were treated with wild type or scrambled peptides along with the peptide carrier Pep-1.

Another assay relates to KBM5 cells. The experiment in a line: MTS cell viability assay. The following applies: KBM5 (no SALL4), 72 h. In kind it is cell-based. The procedure:
(§1) Multiple leukemic and solid tumor cancer cell lines with high or low/no SALL4 expression (FIG. 10A) were chosen to test the biological effect(s) of the wild type peptide. Wild type or scrambled peptide was delivered into tumor cells at various concentrations, and their effects on cells were evaluated 72 hours post-treatment by the MTS cell viability assay. […] The effect of wild type peptide is SALL4-specific, as it had no effect on KBM5, an AML cell line with undetectable endogenous SALL4 expression. We were surprised to see that the wild type peptide had no effect on a high SALL4-expressing endometrioid cancer cell line, AN3CA. This prompted checking whether PTEN, a gene repressed by SALL4 through its interaction with NuRD 27, was present in this cell line. According to the model herein, the function of wild type peptide requires both the expression of SALL4 and intact SALL4 downstream target genes, such as PTEN. In tumor cells with PTEN deletion, even though wild type peptide could compete with endogenous SALL4 in interacting with the HDAC complex, an anti-proliferative effect might not be observed. Therefore, expression of PTEN was evaluated in AN3CA cells along with other cell lines. While PTEN protein was present in all the other cell lines, it was absent in AN3CA cells (FIG. 10C), with reported deletion mutation of the gene in this cell line 40,41. […] Furthermore, the anti-proliferative effect also required certain downstream targets, such as PTEN.
(§2) To further test whether the effect of wild type peptide on tumor cells is related to PTEN, a PTEN inhibitor (SF1670) was used (Li et al., Blood, 117:6702-6713). […] As a control for the specificity of SALL4, KBM5, a non-SALL4-expressing cell line was also treated with PTEN inhibitor.
Background: Tetrazolium dyes change colour on reduction, which living cells bring about.

Another assay concerns THP1 cells. The experiment in a line: MTS cell viability assay. In kind it is cell-based. The following applies: THP1, 72 h. The procedure: as §1, §2
Another assay relates to PC9 cells. Kind of assay: Peptide treatment of lung cancer cells. In kind it is cell-based. The text has this: 56B: Cell image after SALL4 knockdown in H522 cells.
A small peptide has been generated to block the oncogenic function of SALL4. […] Therefore, shown herein is that SALL4 plays a crucial role in tumor initiation and development of NSCLC, and targeting SALL4 may provide an innovated therapeutic approach in the treatment of lung cancer.

Like-named read-outs stand apart in the source and are kept apart here.

Experimental findings from patent US9365851B2, “Spalt-like transcription factor 4 (SALL4) and uses thereof” (National University of Singapore, priority 2011, dated 2016) are described below.

“H-MSRRKQAKPQHI-OH [wt peptide, MSRRKQAKPQHI]”: in the assay on HDAC, the “HDAC activity of peptide pull-down complex” value is “the most HDAC activity”. Also, the “HDAC1 and HDAC2 detected in peptide pull-down” value in the assay on HDAC1 and HDAC2 (listed as wild type peptide) was “easily detected”; in the assay with HDAC1 and HDAC2 (listed as wt), “detected”. Also, in assay [1], the “interaction of endogenous SALL4 with HDAC1” value was “completely abrogated”. In addition, the cell viability result is on record as “no change in cell viability” in the assay on KBM5 cells (listed as wild type), “had no effect” with KBM5 cells (listed as wild type peptide) and “decreased cell viability” in the assay on THP1 cells. The results for the “cell growth / cell death” value in the assay with PC9 cells (listed as Wt) and in the assay on PC9 cells (listed as small peptide) were “cell growth arrest” and “resulted in cell death”, respectively.
As for “Scr peptide: same 12 amino acids as the wt peptide, but in a scrambled sequence; negative control (SRMRQKIHPKIQ) [reference compound]”, in the assay with HDAC, the “HDAC activity of peptide pull-down complex” value is listed as “no HDAC activity”. The “HDAC1 and HDAC2 detected in peptide pull-down” value with HDAC1 and HDAC2 is given as “never”; with HDAC1 and HDAC2 (listed as scrambled peptide), “undetectable”. For the same substance, the “interaction of endogenous SALL4 with HDAC1” value in assay [1] was “not observed”; in assay [1] (listed as scrambled peptide), “does not affect the interaction”. The results for the cell viability result with KBM5 cells and with THP1 cells were “no change in cell viability” and “remained unaffected”, respectively. For the same substance, the “cell growth / cell death” value with PC9 cells is “no effect on the cells”.
